Source: US20110071180A1, “SUB-TYPE SELECTIVE AMIDES OF DIAZABICYCLOALKANES” (Targacept, Inc., priority 2008, published 2011)
Like-named read-outs stand apart in the source and are kept apart here.

Assays:
[1] = target: T1, human α4β2 nAChR subtype (Homo sapiens, UniProt P17787+P43681); experiment: Radioligand binding, [3H]nicotine, membranes from SH-EP1/human α4β2 clonal cells; conditions: [3H]nicotine 5 nM, SH-EP1/human α4β2 cell membranes
T1 construct: expressed in transfected cells; host or cells: SH-EP1 clonal cells expressing human α4β2
T1 sequence (P43681 29-627 limits assumed): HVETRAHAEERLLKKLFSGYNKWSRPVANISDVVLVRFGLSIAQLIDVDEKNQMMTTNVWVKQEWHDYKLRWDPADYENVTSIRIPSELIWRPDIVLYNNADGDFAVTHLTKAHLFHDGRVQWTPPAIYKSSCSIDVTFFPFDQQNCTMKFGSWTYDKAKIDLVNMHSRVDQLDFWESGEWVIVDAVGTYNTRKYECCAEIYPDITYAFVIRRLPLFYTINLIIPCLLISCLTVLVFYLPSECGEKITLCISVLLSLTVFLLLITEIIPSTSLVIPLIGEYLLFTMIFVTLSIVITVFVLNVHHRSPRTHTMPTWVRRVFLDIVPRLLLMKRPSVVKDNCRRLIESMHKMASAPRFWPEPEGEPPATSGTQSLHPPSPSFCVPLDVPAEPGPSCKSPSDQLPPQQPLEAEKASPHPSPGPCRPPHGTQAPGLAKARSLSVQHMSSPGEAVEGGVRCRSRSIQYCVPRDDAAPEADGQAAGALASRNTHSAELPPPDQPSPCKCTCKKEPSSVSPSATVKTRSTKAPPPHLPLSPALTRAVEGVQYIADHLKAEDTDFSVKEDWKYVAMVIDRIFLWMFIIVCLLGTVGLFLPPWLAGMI
T1 sequence (P17787 26-502): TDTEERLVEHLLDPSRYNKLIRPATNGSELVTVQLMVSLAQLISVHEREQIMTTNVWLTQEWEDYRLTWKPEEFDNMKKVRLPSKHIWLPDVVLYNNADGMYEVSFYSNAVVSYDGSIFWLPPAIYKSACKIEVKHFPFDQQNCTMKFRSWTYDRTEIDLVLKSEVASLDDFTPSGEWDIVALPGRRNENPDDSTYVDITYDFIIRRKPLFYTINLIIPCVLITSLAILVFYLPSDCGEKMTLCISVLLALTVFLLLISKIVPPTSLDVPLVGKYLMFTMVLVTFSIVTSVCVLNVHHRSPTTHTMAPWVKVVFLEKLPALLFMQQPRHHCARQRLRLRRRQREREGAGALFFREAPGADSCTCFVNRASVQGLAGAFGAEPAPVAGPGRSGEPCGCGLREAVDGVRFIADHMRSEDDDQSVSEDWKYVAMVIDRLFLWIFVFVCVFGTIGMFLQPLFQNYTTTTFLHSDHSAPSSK
Protocol: Preparation of membranes from SH-EP1/human α4β2 clonal cells: Cell pellets from 40 150 mm culture dishes were pooled, and homogenized by Polytron (Kinematica GmbH, Switzerland) in 20 milliliters of ice-cold preparative buffer. The homogenate was centrifuged at 48,000 g for 20 minutes at 4° C. The resulting pellet was re-suspended in 20 mL of ice-cold preparative buffer and stored at −20° C.
(§1) On the day of the assay, the frozen membranes were thawed and spun at 48,000×g for 20 min. The supernatant was decanted and discarded. The pellet was resuspended in Dulbecco's phosphate buffered saline (PBS, Life Technologies) pH 7.4 and homogenized with the Polytron for 6 seconds. Protein concentrations were determined using a Pierce BCA Protein Assay Kit, with bovine serum albumin as the standard (Pierce Chemical Company, Rockford, Ill.).
(§2) Membrane preparations (approximately 50 μg for human and 200-300 μg protein for rat α4β2) were incubated in PBS (50 μL and 100 μL respectively) in the presence of competitor compound (0.01 nM to 100 μM) and 5 nM [^3H]nicotine for 2-3 hours on ice. Incubation was terminated by rapid filtration on a multi-manifold tissue harvester (Brandel, Gaithersburg, Md.) using GF/B filters presoaked in 0.33% polyethyleneimine (w/v) to reduce non-specific binding. Tissue was rinsed 3 times in PBS, pH 7.4. Scintillation fluid was added to filters containing the washed tissue and allowed to equilibrate. Filters were then counted to determine radioactivity bound to the membranes by liquid scintillation counting (2200CA Tri-Carb LSC, Packard Instruments, 50% efficiency or Wallac Trilux 1450 MicroBeta, 40% efficiency, Perkin Elmer).
(§3) Data were expressed as disintegrations per minute (DPMs). Within each assay, each point had 2-3 replicates. The replicates for each point were averaged and plotted against the log of the drug concentration. IC50, which is the concentration of the compound that produces 50% inhibition of binding, was determined by least squares non-linear regression. Ki values were calculated using the Cheng-Prussof equation (1973): […]

[2] = target: T2, rat α4β2 nAChR subtype (Rattus norvegicus, UniProt P09483+P12390); experiment: Radioligand binding, [3H]nicotine, rat cortex membranes; conditions: [3H]nicotine 5 nM
T2 construct: The cerebral cortex was removed and placed in 20 volumes (weight:volume) of ice-cold preparative buffer; from tissue; host or cells: rat cerebral cortex membranes (female Sprague-Dawley)
T2 sequence (P09483 31-630): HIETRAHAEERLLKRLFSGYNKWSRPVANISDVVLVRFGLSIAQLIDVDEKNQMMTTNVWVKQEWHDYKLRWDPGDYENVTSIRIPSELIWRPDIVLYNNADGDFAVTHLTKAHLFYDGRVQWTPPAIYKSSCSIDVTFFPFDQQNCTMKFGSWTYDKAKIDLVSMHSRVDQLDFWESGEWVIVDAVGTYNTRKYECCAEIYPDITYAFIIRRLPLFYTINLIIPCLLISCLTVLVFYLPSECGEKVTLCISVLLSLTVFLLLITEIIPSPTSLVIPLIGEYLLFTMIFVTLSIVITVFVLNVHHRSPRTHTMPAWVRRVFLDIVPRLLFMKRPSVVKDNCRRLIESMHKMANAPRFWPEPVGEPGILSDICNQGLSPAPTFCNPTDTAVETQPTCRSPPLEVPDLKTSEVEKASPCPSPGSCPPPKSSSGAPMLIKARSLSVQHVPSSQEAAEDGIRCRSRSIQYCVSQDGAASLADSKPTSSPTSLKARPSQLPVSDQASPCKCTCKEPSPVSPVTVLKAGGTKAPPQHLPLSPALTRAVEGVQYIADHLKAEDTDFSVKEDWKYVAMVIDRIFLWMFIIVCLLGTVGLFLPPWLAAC
T2 sequence (P12390 25-500): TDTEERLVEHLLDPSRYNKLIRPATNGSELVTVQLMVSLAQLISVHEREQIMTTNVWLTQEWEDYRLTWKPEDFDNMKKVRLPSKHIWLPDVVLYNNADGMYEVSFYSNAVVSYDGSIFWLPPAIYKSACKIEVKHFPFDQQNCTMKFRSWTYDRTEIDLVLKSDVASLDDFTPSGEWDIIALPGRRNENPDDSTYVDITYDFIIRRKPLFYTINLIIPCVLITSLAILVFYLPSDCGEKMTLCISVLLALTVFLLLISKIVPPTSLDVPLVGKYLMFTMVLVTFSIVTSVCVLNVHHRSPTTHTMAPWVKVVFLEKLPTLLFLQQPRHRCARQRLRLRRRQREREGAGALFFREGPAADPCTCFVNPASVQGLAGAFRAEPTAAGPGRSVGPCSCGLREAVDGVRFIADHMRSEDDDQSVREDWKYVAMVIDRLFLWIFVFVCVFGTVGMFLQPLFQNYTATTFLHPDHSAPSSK
Protocol: Preparation of Membranes from Rat Cortex: Rats (Female, Sprague-Dawley), weighing 150-250 g, were maintained on a 12 h light/dark cycle and were allowed free access to water and food supplied by PMI Nutrition International, Inc. Animals were anesthetized with 70% CO2, and then decapitated. Brains were removed and placed on an ice-cold platform. The cerebral cortex was removed and placed in 20 volumes (weight:volume) of ice-cold preparative buffer (137 mM NaCl, 10.7 mM KCl, 5.8 mM KH2PO4, 8 mM Na2HPO4, 20 mM HEPES (free acid), 5 mM iodoacetamide, 1.6 mM EDTA, pH 7.4); PMSF, dissolved in methanol to a final concentration of 100 μM, was added and the suspension was homogenized by Polytron. The homogenate was centrifuged at 18,000×g for 20 min at 4° C. and the resulting pellet was re-suspended in 20 volumes of ice-cold water. After 60 min incubation on ice, a new pellet was collected by centrifugation at 18,000×g for 20 min at 4° C. The final pellet was re-suspended in 10 volumes of buffer and stored at −20° C.
as §1, §2, §3

[3] = target: T3, α7 nAChR subtype (Rattus norvegicus, UniProt Q05941); experiment: Radioligand binding, [3H]MLA, rat hippocampus membranes; conditions: for inhibition at 5 µM: read-out: α7 high through-put screening (HTS) result
T3 construct: The hippocampus was removed and placed in 10 volumes (weight:volume) of ice-cold preparative buffer; from tissue; host or cells: rat hippocampus membranes (female Sprague-Dawley)
T3 sequence (Q05941 23-502): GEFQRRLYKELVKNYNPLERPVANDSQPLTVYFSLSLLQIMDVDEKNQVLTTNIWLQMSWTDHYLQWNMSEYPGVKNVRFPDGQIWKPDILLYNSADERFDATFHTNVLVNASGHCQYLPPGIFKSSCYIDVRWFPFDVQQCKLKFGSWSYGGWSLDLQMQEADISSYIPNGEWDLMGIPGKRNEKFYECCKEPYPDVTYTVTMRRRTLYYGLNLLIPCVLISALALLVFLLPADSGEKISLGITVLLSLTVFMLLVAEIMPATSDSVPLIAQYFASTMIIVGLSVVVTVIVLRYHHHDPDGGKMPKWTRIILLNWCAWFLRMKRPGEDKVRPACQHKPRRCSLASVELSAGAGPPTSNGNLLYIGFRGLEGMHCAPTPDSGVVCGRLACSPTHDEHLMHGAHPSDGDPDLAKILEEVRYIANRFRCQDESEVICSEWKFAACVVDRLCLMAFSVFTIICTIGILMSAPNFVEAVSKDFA
Protocol: Rats (female, Sprague-Dawley), weighing 150-250 g, were maintained on a 12 h light/dark cycle and were allowed free access to water and food supplied by PMI Nutrition International, Inc. Animals were anesthetized with 70% CO2, then decapitated. Brains were removed and placed on an ice-cold platform. The hippocampus was removed and placed in 10 volumes (weight:volume) of ice-cold preparative buffer (137 mM NaCl, 10.7 mM KCl, 5.8 mM KH2PO4, 8 mM Na2HPO4, 20 mM HEPES (free acid), 5 mM iodoacetamide, 1.6 mM EDTA, pH 7.4); PMSF, dissolved in methanol to a final concentration of 100 μM, was added and the tissue suspension was homogenized by Polytron. The homogenate was centrifuged at 18,000×g for 20 min at 4° C. and the resulting pellet was re-suspended in 10 volumes of ice-cold water. After 60 min incubation on ice, a new pellet was collected by centrifugation at 18,000×g for 20 min at 4° C. The final pellet was re-suspended in 10 volumes of buffer and stored at −20° C. On the day of the assay, tissue was thawed, centrifuged at 18,000×g for 20 min, and then re-suspended in ice-cold PBS (Dulbecco's Phosphate Buffered Saline, 138 mM NaCl, 2.67 mM KCl, 1.47 mM KH2PO4, 8.1 mM Na2HPO4, 0.9 mM CaCl2, 0.5 mM MgCl2, Invitrogen/Gibco, pH 7.4) to a final concentration of approximately 2 mg protein/mL. Protein was determined by the method of Lowry et al., J. Biol. Chem. 193: 265 (1951), using bovine serum albumin as the standard.
The binding of [^3H]MLA was measured using a modification of the methods of Davies et al., Neuropharmacol. 38: 679 (1999). [^3H]MLA (Specific Activity=25-35 Ci/mmol) was obtained from Tocris. The binding of [^3H]MLA was determined using a 2 h incubation at 21° C. Incubations were conducted in 48-well micro-titre plates and contained about 200 μg of protein per well in a final incubation volume of 300 μL. The incubation buffer was PBS and the final concentration of [^3H]MLA was 5 nM. The binding reaction was terminated by filtration of the protein containing bound ligand onto glass fiber filters (GF/B, Brandel) using a Brandel Tissue Harvester at room temperature. Filters were soaked in de-ionized water containing 0.33% polyethyleneimine to reduce non-specific binding. Each filter was washed with PBS (3×1 mL) at room temperature. Non-specific binding was determined by inclusion of 50 μM non-radioactive MLA in selected wells.
The inhibition of [^3H]MLA binding by test compounds was determined by including seven different concentrations of the test compound in selected wells. Each concentration was replicated in triplicate. IC50 values were estimated as the concentration of compound that inhibited 50 percent of specific [^3H]MLA binding. Inhibition constants (Ki values), reported in nM, were calculated from the IC50 values using the method of Cheng et al., Biochem. Pharmacol. 22: 3099-3108 (1973).

[4] = [3H]MLA 5 nM, rat hippocampus membranes, read-out: α7 Ki

| SMILES | Ki [1] | Ki [2] | inhibition at 5 µM [3] | Ki [3, 4] | Ki ([3]; α7 Ki) |
| --- | --- | --- | --- | --- | --- |
| CC(=O)N1CC2CNCC2C1 (stereo not drawn) [Example 10-1] | 38.5 nM | 20.5 nM | < 50% | – | – |
| O=C(C1CC1)N1CC2CNCC2C1 (stereo not drawn) [Example 10-2] | 1.8 nM | 17.3 nM | – | 919 nM | – |
| O=C(C1CCCC1)N1CC2CNCC2C1 (stereo not drawn) [Example 10-3] | 29.6 nM | 27.7 nM | < 50% | – | – |
| COCC(=O)N1CC2CNCC2C1 (stereo not drawn) [Example 10-4] | 323 nM | 137 nM | – | 12400 nM | – |
| C=CCC(=O)N1CC2CNCC2C1 (stereo not drawn) [Example 10-5] | 140 nM | 22.5 nM | < 50% | – | – |
| O=C(C1CC=CC1)N1CC2CNCC2C1 (stereo not drawn) [Example 10-7] | 72.2 nM | 28.4 nM | < 50% | – | – |
| O=C(C1=CCCC1)N1CC2CNCC2C1 (stereo not drawn) [Example 10-8] | 296 nM | 116 nM | < 50% | – | – |
| O=C(C(F)F)N1CC2CNCC2C1 (stereo not drawn) [Example 10-9] | 31.7 nM | 4.3 nM | < 50% | – | – |
| CC(C)=CC(=O)N1CC2CNCC2C1 (stereo not drawn) [Example 10-10] | 79.7 nM | 54.2 nM | < 50% | – | – |
| O=C(CF)N1CC2CNCC2C1 (stereo not drawn) [Example 10-11] | 45.1 nM | 62.2 nM | < 50% | – | – |
| NC(=O)CC(=O)N1CC2CNCC2C1 (stereo not drawn) [Example 10-12] | 746 nM | 1390 nM | < 50% | – | – |
| COCCC(=O)N1CC2CNCC2C1 (stereo not drawn) [Example 10-13] | 220 nM | 305 nM | < 50% | – | – |
| CCC(=O)N1CC2CNCC2C1 (stereo not drawn) [Example 10-14] | 8.5 nM | 16.9 nM | < 50% | – | – |
| CCCC(=O)N1CC2CNCC2C1 (stereo not drawn) [Example 10-15] | 48.8 nM | 112 nM | < 50% | – | – |
| O=C(N1CC2CNCC2C1)C1(C(F)(F)F)CC1 (stereo not drawn) [Example 10-17] | 303 nM | 419 nM | < 50% | – | – |
| O=C(C1CC1(F)F)N1CC2CNCC2C1 (stereo not drawn) [Example 10-18] | 2.1 nM | 6.2 nM | < 50% | – | – |
| CC1(C)CC1C(=O)N1CC2CNCC2C1 (stereo not drawn) [Example 10-19] | 16.9 nM | 7.7 nM | < 50% | – | – |
| CC1(C(=O)N2CC3CNCC3C2)CC1 (stereo not drawn) [Example 10-20] | 53.9 nM | 136 nM | < 50% | – | – |
| CC1CC1C(=O)N1CC2CNCC2C1 (stereo not drawn) [Example 10-21] | 4.2 nM | 4.1 nM | < 50% | – | – |
| O=C(N1CC2CNCC2C1)C1(O)CC1 (stereo not drawn) [Example 10-22] | 343 nM | 445 nM | < 50% | – | – |

| SMILES | Ki [1] | Ki [2] | inhibition at 5 µM [3] | Ki [3, 4] | Ki ([3]; α7 Ki) |
| --- | --- | --- | --- | --- | --- |
| CC1(C)C(C(=O)N2CC3CNCC3C2)C1(C)C (stereo not drawn) [Example 10-23] | 16.4 nM | 49.1 nM | < 50% | – | – |
| N#CC1(C(=O)N2CC3CNCC3C2)CC1 (stereo not drawn) [Example 10-24] | 274 nM | 572 nM | < 50% | – | – |
| O=C(C1CCC1)N1CC2CNCC2C1 (stereo not drawn) [Example 10-25] | 5.8 nM | 12.5 nM | < 50% | – | – |
| O=C(C1CC12CCC2)N1CC2CNCC2C1 (stereo not drawn) [Example 10-26] | 4 nM | 6.3 nM | < 50% | – | – |
| O=C(CO)N1CC2CNCC2C1 (stereo not drawn) [Example 10-27] | 202 nM | 264 nM | < 50% | – | – |
| O=C([C@H]1C[C@H]1F)N1CC2CNCC2C1 (stereo partly drawn) [Example 10-28] | 2.9 nM | 10 nM | < 50% | – | – |
| O=C([C@H]1C[C@@H]1F)N1CC2CNCC2C1 (stereo partly drawn) [Example 10-29] | 5.9 nM | 21.3 nM | < 50% | – | – |
| O=C(CCF)N1CC2CNCC2C1 (stereo not drawn) [Example 10-30] | 14.8 nM | 22.4 nM | < 50% | – | – |
| CC(C)C(=O)N1CC2CNCC2C1 (stereo not drawn) [Example 10-31] | 28.6 nM | 56 nM | < 50% | – | – |
| CC(C)(C)C(=O)N1CC2CNCC2C1 (stereo not drawn) [Example 10-32] | 8.1 nM | 15.8 nM | < 50% | – | – |
| O=C(C1CC(F)C1)N1CC2CNCC2C1 (stereo not drawn) [Example 10-33] | 18 nM | 7.2 nM | < 50% | – | – |
| O=C(CC1CC1)N1CC2CNCC2C1 (stereo not drawn) [Example 10-34] | 105 nM | 62.7 nM | < 50% | – | – |
| CS(=O)(=O)CC(=O)N1CC2CNCC2C1 (stereo not drawn) [Example 10-35] | 345 nM | 238 nM | < 50% | – | – |
| O=C([C@H]1C[C@@H]1F)N1CC2CNCC2C1 (stereo partly drawn) [Example 10-36] | 17.2 nM | 34.3 nM | – | – | 25300 nM |
| O=C([C@@H]1C[C@H]1F)N1CC2CNCC2C1 (stereo partly drawn) [Example 10-37] | 4.9 nM | 12.2 nM | < 50% | – | – |
| O=C([C@H]1C[C@H]1F)N1CC2CNCC2C1 (stereo partly drawn) [Example 10-38] | 30 nM | 9.7 nM | < 50% | – | – |
| O=C([C@@H]1C[C@@H]1F)N1CC2CNCC2C1 (stereo partly drawn) [Example 10-39] | 3.8 nM | 6.6 nM | < 50% | – | – |
| CC(F)(F)C(=O)N1CC2CNCC2C1 (stereo not drawn) [Example 10-40] | 9.8 nM | 8.6 nM | < 50% | – | – |
| CC(C)(F)C(=O)N1CC2CNCC2C1 (stereo not drawn) [Example 10-41] | 26.9 nM | 12 nM | < 50% | – | – |
